Source: patent US20250155427A1, “CELLS […] TASTE RECEPTORS AND USES THEREOF” (Firmenich Incorporated, priority 2022, published 2025)

Target: T1, human T1R1, a rat-human T1R3 chimera, and the promiscuous G-protein G16gust25 (UniProt Q7RTX1+Q923K1, A568E/A645S/A698V/A702T/A793V/A807V/C582S/C678S/E725V/E827G/F612A/F622V/F805L/I617V/I740A/I779T/I803L/K818R/L735F/L823M/L825Q/M644L/M706V/M729T/N675D/Q717H/Q757R/Q795R/Q831P/R632Q/R634S/S576L/S610P/S635P/S637R/S679G/T588V/T694M/T813A/V584A/V718M/V723A/V738A/V744T/V821L/W599R/W676R/W824R/Y598H/Y680C/Y794L)
T1 sequence (Q7RTX1 21-841): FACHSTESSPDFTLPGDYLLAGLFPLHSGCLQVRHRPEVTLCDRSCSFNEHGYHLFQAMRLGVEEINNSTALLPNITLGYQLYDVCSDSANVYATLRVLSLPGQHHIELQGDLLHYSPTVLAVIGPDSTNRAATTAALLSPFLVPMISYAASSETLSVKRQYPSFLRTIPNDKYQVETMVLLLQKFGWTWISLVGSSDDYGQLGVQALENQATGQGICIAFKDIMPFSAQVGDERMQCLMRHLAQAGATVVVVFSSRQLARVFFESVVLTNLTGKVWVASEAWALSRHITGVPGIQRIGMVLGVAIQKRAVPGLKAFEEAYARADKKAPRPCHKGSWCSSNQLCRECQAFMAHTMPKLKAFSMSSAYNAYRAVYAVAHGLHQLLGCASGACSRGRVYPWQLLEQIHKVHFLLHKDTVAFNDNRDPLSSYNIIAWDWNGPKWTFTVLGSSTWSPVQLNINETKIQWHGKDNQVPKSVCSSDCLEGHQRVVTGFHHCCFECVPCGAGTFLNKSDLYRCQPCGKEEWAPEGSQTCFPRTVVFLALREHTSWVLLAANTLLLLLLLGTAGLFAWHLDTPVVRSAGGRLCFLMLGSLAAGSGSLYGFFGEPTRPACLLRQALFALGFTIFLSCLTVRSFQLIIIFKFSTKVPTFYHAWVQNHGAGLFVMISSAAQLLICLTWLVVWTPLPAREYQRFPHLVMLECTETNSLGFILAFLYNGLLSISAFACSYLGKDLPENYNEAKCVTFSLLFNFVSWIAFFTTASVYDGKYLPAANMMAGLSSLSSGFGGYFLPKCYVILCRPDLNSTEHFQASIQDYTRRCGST
T1 sequence (Q923K1 with tags, fused parts or gaps A568E/S576L/C582S/V584A/T588V/Y598H/W599R/S610P/F612A/I617V/F622V/R632Q/R634S/S635P/S637R/M644L/A645S/N675D/W676R/C678S/S679G/Y680C/T694M/A698V/A702T/M706V/Q717H/V718M/V723A/E725V/M729T/L735F/V738A/I740A/V744T/Q757R/I779T/A793V/Y794L/Q795R/I803L/F805L/A807V/T813A/K818R/V821L/L823M/W824R/L825Q/E827G/Q831P limits assumed): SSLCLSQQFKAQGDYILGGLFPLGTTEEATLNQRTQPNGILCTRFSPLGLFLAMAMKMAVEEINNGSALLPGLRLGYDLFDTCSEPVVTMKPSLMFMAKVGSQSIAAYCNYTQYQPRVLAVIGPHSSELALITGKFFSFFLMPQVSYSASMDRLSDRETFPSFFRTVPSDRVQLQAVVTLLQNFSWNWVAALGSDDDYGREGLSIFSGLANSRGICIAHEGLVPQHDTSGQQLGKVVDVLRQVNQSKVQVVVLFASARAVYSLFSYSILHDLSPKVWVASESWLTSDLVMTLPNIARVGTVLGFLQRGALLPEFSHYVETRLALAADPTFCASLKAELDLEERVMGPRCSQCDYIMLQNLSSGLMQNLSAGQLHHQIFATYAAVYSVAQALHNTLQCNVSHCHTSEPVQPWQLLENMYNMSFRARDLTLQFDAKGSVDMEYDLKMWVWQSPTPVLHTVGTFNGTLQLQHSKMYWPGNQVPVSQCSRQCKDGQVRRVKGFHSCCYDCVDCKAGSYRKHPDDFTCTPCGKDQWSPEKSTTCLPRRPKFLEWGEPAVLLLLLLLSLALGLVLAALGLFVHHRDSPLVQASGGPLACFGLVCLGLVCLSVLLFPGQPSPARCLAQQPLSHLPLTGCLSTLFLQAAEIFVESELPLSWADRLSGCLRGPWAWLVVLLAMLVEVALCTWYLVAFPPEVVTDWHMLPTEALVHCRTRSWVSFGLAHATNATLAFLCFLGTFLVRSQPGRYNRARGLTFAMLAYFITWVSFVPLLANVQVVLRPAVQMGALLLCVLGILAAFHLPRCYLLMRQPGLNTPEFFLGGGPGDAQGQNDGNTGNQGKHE
Details: MSG dose response, U2OS cell line, FIG. 4A
Text: The x-axis plots the log of MSG concentration, while the y-axis plots fold change in fluorescence of a Ca^2+-sensitive fluorescent dye in response to intracellular Ca^2+ concentration.
The x-axis plots the log of savory compound concentration, while the y-axis plots fold change in fluorescence of a Ca^2+-sensitive fluorescent dye in response to intracellular Ca^2+ concentration. FIG. 4A also indicates the EC50 for each compound.

Question: For `N[C@@H](CCC(=O)O)C(=O)[O-].[Na+]` [MSG, monosodium glutamate], which “fold change in fluorescence of a Ca^2+-sensitive fluorescent dye in response to intracellular Ca^2+ concentration” value is on record?
Answer: The value was “fluorescence detectably increases as MSG concentration increases”.
